# Laboratory results as given in patent US9783532B2, “Molecules having certain pesticidal utilities, and intermediates, compositions, and processes related thereto” (Dow AgroSciences LLC, priority 2013, dated 2017).
# Experiments:
# Format in all cases: in vivo
# [1] = tested on: Yellow Fever Mosquito "YFM" (Aedes aegypti); settings: for YFM (Biological Results, Insect species): Table ABC (FB), activity rating class; for YFM % Control (or Mortality) rating: about 1 day-old larvae, 96-well plate, room temperature, 3 days
# Procedure: Certain molecules disclosed in this document were tested against YFM using procedures described in the following paragraph. In the reporting of the results, the “YFM Rating Table” was used (See Table Section).
# Master plates containing 400 μg of a molecule dissolved in 100 μL of dimethyl sulfoxide (DMSO) (equivalent to a 4000 ppm solution) are used. A master plate of assembled molecules contains 15 μL per well. To this plate, 135 μL of a 90:10 wateracetone mixture is added to each well. A robot (Biomek® NXP Laboratory Automation Workstation) is programmed to dispense 15 μL aspirations from the master plate into an empty 96-well shallow plate (“daughter” plate). There are 6 reps (“daughter” plates) created per master. The created daughter plates are then immediately infested with YFM larvae.
# The day before plates are to be treated, mosquito eggs are placed in Millipore water containing liver powder to begin hatching (4 g. into 400 mL). After the daughter plates are created using the robot, they are infested with 220 μL of the liver powder/larval mosquito mixture (about 1 day-old larvae). After plates are infested with mosquito larvae, a non-evaporative lid is used to cover the plate to reduce drying. Plates are held at room temperature for 3 days prior to grading. After 3 days, each well is observed and scored based on mortality.
# [2] = tested on: Beet Armyworm (Spodoptera exigua) ("BAW"); experiment: Bioassay on beet armyworm (BAW), 128-well diet tray assay; settings: for pest or weed control at 50 µg/cm2: Table ABC (FB), activity rating class, read-out: BAW (Biological Results, Insect species); for mortality at 50 µg/cm2: 168 h, 50 μg/cm^2 on artificial diet, second instar BAW larvae, 25° C., five to seven days, average of eight wells, read-out: BAW % Control (or Mortality) rating
# In short: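 Percent mortality, averaged across eight wells, was read after five to seven days at 25° C. under 14:10 light-dark. Each well held one to five second-instar larvae on artificial diet that had been treated with 50 μg/cm^2 compound in 90:10 acetone-water and dried.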
# [3] = tested on: Cabbage Looper (Trichoplusia ni) ("CL"); experiment: Bioassay on cabbage looper (CL), 128-well diet tray assay; settings: for pest or weed control at 50 µg/cm2: Table ABC (FB), activity rating class, read-out: CL (Biological Results, Insect species); for mortality at 50 µg/cm2: 168 h, 50 μg/cm^2 on artificial diet, second instar CL larvae, 25° C., five to seven days, average of eight wells, read-out: CL % Control (or Mortality) rating
# In short: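 Percent mortality, averaged across eight replicate wells, was read after five to seven days at 25 °C under a 14:10 photoperiod. Each well held one to five second-instar T. ni on diet carrying a dried 50 μg/cm^2 dose applied in acetone-water 90:10.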
SMILES,"YFM (Biological Results, Insect species) [1]",pest or weed control at 50 µg/cm2 [2] [%],pest or weed control at 50 µg/cm2 [3] [%],YFM % Control (or Mortality) rating [1],mortality at 50 µg/cm2 [2] [%],mortality at 50 µg/cm2 [3] [%]
"CCN(CCc1ccc(-c2ncn(-c3ccc(OC(F)(F)F)cc3)n2)cc1)C(=O)/N=C1\SCC(=O)N1c1cc(C)ccc1C(C)C [FB54, (Z)-1-ethyl-3-(3-(2-isopropyl-5-methylphenyl)-4-oxothiazolidin-2-ylidene)-1-(4-(1-(4-(trifluoromethoxy)phenyl)-1H-1,2,4-triazol-3-yl)phenethyl)urea]",A (80-100),50 to 100,50 to 100,–,–,–
"CCc1cc(C)ccc1N1/C(=N/C(=O)NCCc2ccc(-c3ncn(-c4ccc(OC(F)(F)F)cc4)n3)cc2)SCC1C (stereo not drawn) [FB56, (Z)-1-(3-(2-ethyl-4-methylphenyl)-4-methylthiazolidin-2-ylidene)-3-(4-(1-(4-(trifluoromethoxy)phenyl)-1H-1,2,4-triazol-3-yl)phenethyl)urea]",A (80-100),50 to 100,50 to 100,–,–,–
CC(C)c1cc(F)ccc1N1/C(=N/C(=O)NCCc2ccc(-c3ncn(-c4ccc(OC(F)(F)F)cc4)n3)cc2)SCC1C (stereo not drawn) [FB57],A (80-100),50 to 100,50 to 100,–,–,–
"COc1ccc(N2/C(=N/C(=O)NCCc3ccc(-c4ncn(-c5ccc(OC(F)(F)F)cc5)n4)cc3)SCC2C)c(C)c1 (stereo not drawn) [FB58, (Z)-1-(3-(4-methoxy-2-methylphenyl)-4-methylthiazolidin-2-ylidene)-3-(4-(1-(4-(trifluoromethoxy)phenyl)-1H-1,2,4-triazol-3-yl)phenethyl)urea]",A (80-100),50 to 100,50 to 100,–,–,–
"Cc1cccc(C)c1N1/C(=N/C(=O)NCCc2ccc(-c3ncn(-c4ccc(OC(F)(F)F)cc4)n3)cc2)SCC1C (stereo not drawn) [FB59, (Z)-1-(3-(2,6-dimethylphenyl)-4-methylthiazolidin-2-ylidene)-3-(4-(1-(4-(trifluoromethoxy)phenyl)-1H-1,2,4-triazol-3-yl)phenethyl)urea]",A (80-100),50 to 100,50 to 100,–,–,–
"Cc1ccc(N2/C(=N/C(=O)NCCc3ccc(-c4ncn(-c5ccc(OC(F)(F)F)cc5)n4)cc3)SCC2C)c(C(C)C)c1 (stereo not drawn) [FB60, (Z)-1-(3-(2-isopropyl-4-methylphenyl)-4-methylthiazolidin-2-ylidene)-3-(4-(1-(4-(trifluoromethoxy)phenyl)-1H-1,2,4-triazol-3-yl)phenethyl)urea]",A (80-100),50 to 100,50 to 100,–,–,–
C=CCN(CCc1ccc(-c2ncn(-c3ccc(OC(F)(F)F)cc3)n2)cc1)C(=O)/N=C1\SCC(=O)N1c1cc(C)ccc1C(C)C [FB61],A (80-100),50 to 100,50 to 100,–,–,–
"Cc1ccc(C(C)C)c(N2C(=O)CS/C2=N\C(=O)N(CCc2ccc(-c3ncn(-c4ccc(OC(F)(F)F)cc4)n3)cc2)CC2CC2)c1 [FB62, (Z)-1-(cyclopropylmethyl)-3-(3-(2-isopropyl-5-methylphenyl)-4-oxothiazolidin-2-ylidene)-1-(4-(1-(4-(trifluoromethoxy)phenyl)-1H-1,2,4-triazol-3-yl)phenethyl)urea]",A (80-100),50 to 100,50 to 100,–,–,–
"Cc1ccc(C(C)C)c(N2C(=O)CS/C2=N\C(=O)NC2(Cc3ccc(-c4ncn(-c5ccc(OC(F)(F)F)cc5)n4)cc3)CC2)c1 [FB63, (Z)-1-(3-(2-isopropyl-5-methylphenyl)-4-oxothiazolidin-2-ylidene)-3-(1-(4-(1-(4-(trifluoromethoxy)phenyl)-1H-1,2,4-triazol-3-yl)benzyl)cyclopropyl)urea]",A (80-100),50 to 100,50 to 100,–,–,–
"CS/C(=N\C(=O)NCCc1ccc(-c2ncn(-c3ccc(OC(F)(F)F)cc3)n2)cc1)Nc1cc(C)ccc1C(C)C [FB65, (Z)-methyl N-(2-isopropyl-5-methylphenyl)-N′-((4-(1-(4-(trifluoromethoxy)phenyl)-1H-1,2,4-triazol-3-yl)phenethyl)carbamoyl)carbamimidothioate]",A (80-100),50 to 100,50 to 100,–,–,–
"Cc1ccc(C(C)C)c(N2/C(=N/C(=O)NCCc3ccc(-c4ncn(-c5ccc(OC(F)(F)F)cc5)n4)cc3)SCC2(C)O)c1 (stereo not drawn) [FB67, (Z)-1-(4-hydroxy-3-(2-isopropyl-5-methylphenyl)-4-methylthiazolidin-2-ylidene)-3-(4-(1-(4-(trifluoromethoxy)phenyl)-1H-1,2,4-triazol-3-yl)phenethyl)urea]",A (80-100),50 to 100,50 to 100,–,–,–
"Cc1ccc(C(C)C)c(N2C(=O)CS/C2=N\C(=O)NCC(Br)c2ccc(-c3ncn(-c4ccc(OC(F)(F)F)cc4)n3)cc2)c1 (stereo not drawn) [FB71, (Z)-1-(2-bromo-2-(4-(1-(4-(trifluoromethoxy)phenyl)-1H-1,2,4-triazol-3-yl)phenyl)ethyl)-3-(3-(2-isopropyl-5-methylphenyl)-4-oxothiazolidin-2-ylidene)urea]",A (80-100),50 to 100,50 to 100,–,–,–
"Cc1ccc(N2C(=O)CS/C2=N\C(=O)NCCc2ccc(-c3ncn(-c4ccc(OC(F)(F)F)cc4)n3)cc2)c(C(C)C)c1 [P26, (Z)-1-(3-(2-isopropyl-4-methylphenyl)-4-oxothiazolidin-2-ylidene)-3-(4-(1-(4-(trifluoromethoxy)phenyl)-1H-1,2,4-triazol-3-yl)phenethyl)urea]",–,–,–,A (80-100),50 to 100,50 to 100
"Cc1cccc(N2C(=O)CS/C2=N\C(=O)NCCc2ccc(-c3ncn(-c4ccc(OC(F)(F)F)cc4)n3)cc2)c1C(C)C [P27, (Z)-1-(3-(2-isopropyl-3-methylphenyl)-4-oxothiazolidin-2-ylidene)-3-(4-(1-(4-(trifluoromethoxy)phenyl)-1H-1,2,4-triazol-3-yl)phenethyl)urea]",–,–,–,A (80-100),50 to 100,50 to 100
"CCCc1ccc(C)cc1N1C(=O)CS/C1=N\C(=O)NCCc1ccc(-c2ncn(-c3ccc(OC(F)(F)F)cc3)n2)cc1 [P29, (Z)-1-(3-(5-methyl-2-propylphenyl)-4-oxothiazolidin-2-ylidene)-3-(4-(1-(4-(trifluoromethoxy)phenyl)-1H-1,2,4-triazol-3-yl)phenethyl)urea]",–,–,–,A (80-100),50 to 100,50 to 100
"CC(C)(C)c1ccccc1N1C(=O)CS/C1=N\C(=O)NCCc1ccc(-c2ncn(-c3ccc(OC(F)(F)F)cc3)n2)cc1 [P30, (Z)-1-(3-(2-(tert-butyl)phenyl)-4-oxothiazolidin-2-ylidene)-3-(4-(1-(4-(trifluoromethoxy)phenyl)-1H-1,2,4-triazol-3-yl)phenethyl)urea]",–,–,–,A (80-100),50 to 100,50 to 100
"CCc1cc(C)ccc1N1C(=O)CS/C1=N\C(=O)NCCc1ccc(-c2ncn(-c3ccc(OC(F)(F)F)cc3)n2)cc1 [P31, (Z)-1-(3-(2-ethyl-4-methylphenyl)-4-oxothiazolidin-2-ylidene)-3-(4-(1-(4-(trifluoromethoxy)phenyl)-1H-1,2,4-triazol-3-yl)phenethyl)urea]",–,–,–,A (80-100),50 to 100,50 to 100
"CC(Cc1ccc(-c2ncn(-c3ccc(OC(F)(F)F)cc3)n2)cc1)NC(=O)/N=C1\SCC(=O)N1c1ccc(F)cc1C(C)C (stereo not drawn) [P33, (Z)-1-(3-(4-fluoro-2-isopropylphenyl)-4-oxothiazolidin-2-ylidene)-3-(1-(4-(1-(4-(trifluoromethoxy)phenyl)-1H-1,2,4-triazol-3-yl)phenyl)propan-2-yl)urea]",–,–,–,A (80-100),50 to 100,50 to 100
"CCc1cccc(C)c1N1C(=O)CS/C1=N\C(=O)NC(C)Cc1ccc(-c2ncn(-c3ccc(OC(F)(F)F)cc3)n2)cc1 (stereo not drawn) [P42, (Z)-1-(3-(2-ethyl-1-methylphenyl)-4-oxothiazolidin-2-ylidene)-3-(1-(4-(1-(4-(trifluoromethoxy)phenyl)-1H-1,2,4-triazol-3-yl)phenyl)propan-2-yl)urea]",–,–,–,A (80-100),50 to 100,50 to 100
